What is called EC50 is the concentration giving half of the maximal effect. As a reminder, the CLint scaled is the capacity of the preparation to metabolise the compound, expressed as a volume cleared per time. High values mean faster metabolism, low ones greater metabolic stability. A word on the Papp: it is a coefficient for how fast a substance crosses the barrier. Low readings indicate slow passage, high ones fast passage.

The results in this text go back to patent publication US20240158368A1, “Pyrrolidine Main Protease Inhibitors as Antiviral Agents” (AbbVie Inc., priority 2022, published 2024).

The target of one series is SARS-CoV-1 Mpro (Severe acute respiratory syndrome coronavirus (SARS-CoV), UniProt P0C6X7). It is filed as biochemical.
Another series has as its target SARS-CoV-2 Mpro (Severe acute respiratory syndrome coronavirus 2 (2019-nCoV) (SARS-CoV-2), UniProt P0DTD1). It is filed as biochemical.
For another series, the target named is 229E Mpro (Human coronavirus 229E (HCoV-229E), UniProt P0C6X1). It is filed as biochemical.
For a further series, the target named is MERS Mpro (Middle East respiratory syndrome-related coronavirus (isolate United Kingdom/H123990006/2012) (MERS-CoV) (Betacoronavirus England 1), UniProt K9N7C7). The experiment in a line: biochemical.
Series [1] is described as follows: in vitro. The following applies: rat, microsomes, pH 7.4.
In the next series the target is OC43 Mpro (Human coronavirus OC43 (HCoV-OC43), UniProt P0C6X6). In kind it is biochemical.
In a further series the test system is 229E virus. As to the kind of experiment: organism not typed. In kind it is cell-based. The following applies: Huh-7, read-out: Antiviral 229E EC50 (μM).
In series [2] the test system is SARS-CoV-2 (strain USA-WA1/2020). The experiment in a line: microbe, parasite or virus in culture. In kind it is cell-based. The following applies: Severe acute respiratory syndrome coronavirus 2; HeLa-ACE2 cells; read-out: Antiviral CoV-2 EC50.
For a further series, the system named is OC43 virus. The experiment in a line: microbe, parasite or virus in culture. The following applies: Betacoronavirus 1, OC43, Huh-7, read-out: Antiviral OC43 EC50 (μM). In kind it is cell-based.
Series [3] can be described thus: in vitro. The following applies: human, microsomes, pH 7.4.
Series [4] can be described thus: in vitro. The following applies: PAMPA. (The PAMPA barrier holds no transporters, so it reflects passive diffusion.)

OC43 Mpro, sequence (P0C6X6 3247-3549 limits assumed): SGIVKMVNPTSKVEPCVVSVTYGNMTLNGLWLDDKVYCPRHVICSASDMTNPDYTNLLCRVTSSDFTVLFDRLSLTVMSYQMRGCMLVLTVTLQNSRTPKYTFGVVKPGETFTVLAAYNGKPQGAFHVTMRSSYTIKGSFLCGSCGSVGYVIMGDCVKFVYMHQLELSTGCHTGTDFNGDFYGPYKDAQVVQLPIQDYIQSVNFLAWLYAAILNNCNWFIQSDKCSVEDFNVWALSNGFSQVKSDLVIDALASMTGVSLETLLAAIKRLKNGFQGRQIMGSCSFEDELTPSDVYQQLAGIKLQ
MERS Mpro, sequence (K9N7C7 3248-3553 limits assumed): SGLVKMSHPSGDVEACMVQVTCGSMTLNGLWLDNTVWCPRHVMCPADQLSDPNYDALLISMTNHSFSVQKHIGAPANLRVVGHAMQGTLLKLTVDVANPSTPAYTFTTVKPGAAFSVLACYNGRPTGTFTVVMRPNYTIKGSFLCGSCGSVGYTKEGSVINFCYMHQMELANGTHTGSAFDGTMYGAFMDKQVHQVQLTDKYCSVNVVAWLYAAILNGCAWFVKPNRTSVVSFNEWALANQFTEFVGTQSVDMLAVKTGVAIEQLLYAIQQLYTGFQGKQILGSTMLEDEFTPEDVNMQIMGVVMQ
229E Mpro, sequence (P0C6X1 2966-3267 limits assumed): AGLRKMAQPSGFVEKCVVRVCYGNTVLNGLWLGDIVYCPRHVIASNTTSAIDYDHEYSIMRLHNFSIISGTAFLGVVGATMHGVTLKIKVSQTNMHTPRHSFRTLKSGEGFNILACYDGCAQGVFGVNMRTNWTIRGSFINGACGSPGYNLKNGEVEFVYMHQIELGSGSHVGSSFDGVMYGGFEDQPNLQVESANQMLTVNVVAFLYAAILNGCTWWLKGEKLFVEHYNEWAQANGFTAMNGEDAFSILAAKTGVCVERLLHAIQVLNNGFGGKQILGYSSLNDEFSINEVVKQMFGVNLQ

With `O=C(N[C@@H]1CCN(c2c(C(=O)N3CCOCC3)cc(Br)cc2C(F)(F)F)C1)c1cc(=O)[nH]c2c(F)cc(F)cc12` [Compound 49], the 50% effective concentration (EC50) at SARS-CoV-1 Mpro came out at 1.1 nM; at SARS-CoV-2 Mpro, 0.43 nM; at 229E Mpro it was 4.7 nM; at MERS Mpro it was 0.95 nM; on OC43 Mpro, 1.64 nM; in the series with 229E virus, 0.0959 µM. Also, the results for the EC50 (in series [2]; in the series with OC43 virus) were 11.3 nM and 0.168 µM, respectively. Moreover, the figures for the intrinsic clearance (CLint scaled) in the series “in vitro [1]” and in the series “in vitro [3]” were 573 mL/min/kg and 190 mL/min/kg, respectively. In the series “in vitro [4]”, the Papp was 15.6 ×10⁻⁶ cm/s.
Take `CN1CCN(C(=O)c2cc(C#N)cc(C(F)(F)F)c2N2CC[C@@H](NC(=O)c3cc(=O)[nH]c4c(F)cccc34)C2)CC1` [Compound 14]: the EC50 was determined as 2.73 nM at SARS-CoV-1 Mpro; 0.46 nM on SARS-CoV-2 Mpro; 2.1 nM at 229E Mpro; 1.33 nM on MERS Mpro; 2 nM on OC43 Mpro; 0.15 µM with 229E virus. In addition, the EC50 in series [2] amounted to 12.9 nM; in the series with OC43 virus it was 0.19 µM. The intrinsic metabolic clearance (CLint scaled) in “in vitro [1]” was 56.7 mL/min/kg; in “in vitro [3]”, under 30 mL/min/kg. This compound also returned a Papp in the series “in vitro [4]” of 2.73 ×10⁻⁶ cm/s.
Consider `O=C(N[C@@H]1CCN(c2c(C(=O)N3CCOCC3)cc(Br)cc2C(F)(F)F)C1)c1cc(=O)[nH]c2c(F)c(F)ccc12` [Compound 51], for which the EC50 at SARS-CoV-1 Mpro came to 1.23 nM; at SARS-CoV-2 Mpro it was 0.42 nM; on 229E Mpro, 3.56 nM; at MERS Mpro it was 0.68 nM; at OC43 Mpro, 1.1 nM; in the series on 229E virus, 0.0475 µM. The results for the concentration giving a half-maximal response (EC50) (in series [2]; in the series on OC43 virus) were 16 nM and 0.0584 µM, respectively. The CLint scaled in “in vitro [1]” was 447 mL/min/kg; in the series “in vitro [3]”, 125 mL/min/kg. This compound also had an apparent permeability (Papp) in “in vitro [4]” of 14.5 ×10⁻⁶ cm/s.
